Data taken from a melting point compilation (Tetko et al.; mined from patent text by program, amines drawn as free bases though some values may be those of a salt).

SMILES	melting point [°C]
CC(=O)OC1(C)CCCCC1C1CCCCC1 (centres undefined)	35
NC1=CC(N)=NCN1C(=O)OCc1ccccc1	194
O=C(C=Cc1cccnc1)NC(Cc1c[nH]c2ccccc12)C(=O)CCc1cc(C(F)(F)F)cc(C(F)(F)F)c1 (centres undefined)	138 to 139
O=C1C=CC(=Cc2cccs2)O1	100 to 102
CC1(O)CC(=O)OC(CCc2ccc(O)cc2)C1 (centres undefined)	135 to 137
O=C(c1ncco1)c1ccc([N+](=O)[O-])cc1Cl	124 to 125
NC(=O)c1ncc(Cl)cc1F	162 to 164
CC(C#N)c1c(Cl)cc([N+](=O)[O-])cc1Cl (centres undefined)	72
CCCCCCOc1ccc(C(=O)O)cc1Cl	140
C=CCN1CCCC1CNC(=O)c1cc(S(N)(=O)=O)cc2c1OCCO2 (centres undefined)	143 to 144
NS(=O)(=O)C(Br)(Br)S(=O)(=O)c1ccc(Br)cc1	192
O=C(O)c1cnc(Oc2ccccc2)s1	172 to 173
CC1(C)CC(=O)N(CCCCN2CCN(c3nc(C(C)(C)C)cs3)CC2)C(=O)C1	93 to 94
C#CCCCCOc1ccc(/C=C/C(=O)Nc2ccccc2C(=O)O)cc1OC	148 to 150
O=C(NC(P(=O)(O)O)P(=O)(O)O)c1cc2ccccc2s1	234 to 238
CN1CCC(O)(c2cc(F)cc(F)c2)C1 (centres undefined)	150
CN1Cc2c(C#CC3(O)CCCC3)ncn2-c2cccc(Cl)c2C1=O	207 to 208
CCCCCCCCCCCCCCCC(=O)OC(CCCCCCCCCCCCCC)C(=O)O (centres undefined)	55 to 56
CC(C)(C)c1cc(C=C2CCN(CCO)C2=O)cc(C(C)(C)C)c1O	191
CSN(C=C(C#N)C#N)c1cccc(C(C)=O)c1	165 to 166
CCn1c2ccc(C=NNc3ccccc3)cc2c2cc(C=NNc3ccccc3)ccc21	119 to 120
CC(=O)N(C)c1c(I)c(N)c(I)c(C(=O)N(C)C)c1I	235 to 240

The next lines start with the values.

melting point [°C]	SMILES
223 to 224	CC(=O)N1CCC(n2ccc(-c3ccc(F)cc3)c2-c2ccncc2)CC1
77 to 79	O=C(Oc1ccc2ncccc2c1)c1ccccc1
80 to 81	CC[C@H](C)[C@H](NC(=O)[C@@H]1CCCN1CC(=O)[C@H](Cc1ccccc1)NC(=O)OCc1ccccc1)C(=O)NCC(C)C
133 to 135	CC(=O)c1cc(Cl)cc(Oc2ncccc2C(=O)NC[C@H]2CC[C@H](C(C)(C)O)CC2)c1
164 to 166	CCOC(=O)c1cnc2c(c(C)nn2-c2ccccc2)c1N(Cc1ccccc1)S(=O)(=O)c1ccc(OC)cc1
157 to 159	CCn1c(=O)n(OCc2ccccc2)c(=O)c2cc(F)c(N3CCC(NC(=O)OC(C)(C)C)C3)nc21 (centres undefined)
40	CCCCCC[C@H](C)Oc1ccc(-c2ccc(O)c([N+](=O)[O-])c2)cc1
170 to 172	CCc1nc(OC)c(NC(=O)N2CCN(c3cc(OC)cc(OC)c3)CC2)cc1C(=O)Nc1cc(CO)cc(Nc2c3ccccc3nc3ccccc23)c1
248 to 249	CN1C(=O)CC(c2ccc(O)cc2)C1C(O)c1ccc(-c2ccccc2)s1 (centres undefined)
154 to 157	COc1cc2c(c3c1OC(C)(C)C3)C(c1cccc(C(=O)N[C@H]3CNC3=O)c1)=NC(C)(C)C2
97 to 99	CCCOc1ccc(C(=O)Cn2cncn2)cc1
> 200	CCOC(=O)c1c(CCc2ccc(OC)cc2)nc2c(c1-c1ccc(C(=O)NCc3ccccn3)cc1)C(=O)N1CCC[C@H]1C2
> 250	CCn1nc(-c2nc(C#N)c(N)nc2-c2ccccc2)ccc1=O
135 to 137	CCCCc1nc(C)n2nc(S)nc2c1Cc1ccc(-c2ccccc2)c(-c2nnn[nH]2)c1
96 to 98	CCCN(CCCC12CC3CC(CC(C3)C1)C2)C(=O)NCc1ccncc1
98 to 100	CCC1(C=O)CSc2ccccc2C(c2ccccc2)=N1 (racemic)
180 to 182	Fc1ccc(-c2nnc(S)nc2-c2ccc(F)cc2)cc1
